Columns and labels:
AIM2 inflammasome = molecular target: T1, AIM2 inflammasome (Mus musculus, UniProt Q91VJ1); experiment: AIM2 inflammasome activation assay: IL-1β release, microglia from NLRP3 KO mice, LPS and poly(dA:dT); format: cell-based
T1 construct: endogenous in cells; host or cells: primary microglia from NLRP3 KO mice
T1 sequence (Q91VJ1 1-354): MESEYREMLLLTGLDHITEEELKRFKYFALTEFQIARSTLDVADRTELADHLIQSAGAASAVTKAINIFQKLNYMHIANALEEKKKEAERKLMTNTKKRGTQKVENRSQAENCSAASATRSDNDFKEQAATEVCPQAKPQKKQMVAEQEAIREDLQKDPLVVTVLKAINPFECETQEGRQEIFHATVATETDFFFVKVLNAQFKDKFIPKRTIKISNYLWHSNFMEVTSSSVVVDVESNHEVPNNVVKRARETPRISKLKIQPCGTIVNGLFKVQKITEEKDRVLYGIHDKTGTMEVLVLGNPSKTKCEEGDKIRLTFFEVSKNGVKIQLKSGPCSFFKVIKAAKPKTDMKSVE
Protocol: AIM2, NLRP7, and NLRC4 inflammasomes activation assays. Microglia from NLRP3 KO mice were pre-treated with 100 μM C75, C78, C97, or C77, during one hour. AIM2 inflammasome activation was induced through the addition of 100 ng/ml LPS for 2 hours, followed by transfection of 1 μg poly(dA:dT) using Lipofectamine 2000 during 2 hours, following the manufacturer recommendations. NLRC4 was activated by treatment with 150 ng/ml LPS for 2 hours, before transfection of 1 μg flagellin during 2 hours, using lipofectamine 2000 as transfection reagent. Negative and positive controls were pre-treated with the same DMSO percentage as cells treated with the inhibitors. Negative controls were kept untreated after DMSO addition, while LPS-poly(dA:dT) or LPS-flagellin was added to positive controls for AIM2, and NLRC4 activation, respectively. For activation of the NLRP7 inflammasome different conditions were assessed: treatment of WT microglia cultures with 400 ng/ml fibroblast-stimulating lipopeptide-1 (fsl-1) for 7 hours, priming with 150 ng/ml LPS for 1 hour and treatment with 400 ng/ml fsl-1 for 7 hours, and priming with 150 ng/ml LPS and transfection of 400 ng/ml fsl-1 with lipofectamine. MCC950 was used as a negative control for NLRC4 and AIM-2 inhibition. […]
Cytokine quantification. […] IL-1β precursor and cleaved IL-1β in the FC of mice treated with vehicles, LPS, or C77-LPS was assessed by western blot. […]

[1] = tested on: NLRP3, caspase-1, IL-1β, IL-6, IL-8, and TNF-α gene expression; experiment: Gene expression analysis in cell cultures (FIG. 3C); format: cell-based, human
Protocol: Gene expression analysis. RNA was isolated from frontal cortex from C57BL/6J mice or from THP1 human cultures using the RNeasy Mini Kit (QIAGEN, Hilden, Germany), following the recommendations of the manufacturer. RNA concentration was determined, and cDNA was synthesized using the High-Capacity cDNA Reverse Transcription Kit with RNase Inhibitor (applied biosystems™). The expression levels of inflammatory genes—NLRP3, caspase-1, IL-1β, TNF-α, NLRC4, IL-18, and IL6—were determined in 4 replicates through PowerUp SYBER Green Master Mix (Thermofisher) using an ABI PRISM […] Sequence Detection System. Hypoxanthine phosphoribosyltransferase (HPRT) was used as an internal control in samples from mouse brains, and GAPDH in the case of THP1 lysates. Gene expression levels were normalized to control samples (mice or THP1 cells treated with PBS).

O=C(Cn1c(=O)oc2ccccc21)NCc1cncc(-c2ccsc2)c1 [Compound C77]
inhibition of AIM2-mediated IL-1β release (AIM2 inflammasome): did not inhibit
expression of caspase-1 [1]: slightly reduced the expression of caspase-1
mRNA levels of IL-6, IL-8, or TNF-α [1]: did not modify the mRNA levels
transcriptional priming of NLRP3 or IL-1β [1]: did not affect the transcriptional priming

— patent US20240158386A1, “BENZOXAZOLONE INHIBITORS OF INFLAMMASOMES” (ICAHN SCHOOL OF MEDICINE AT MOUNT SINAI, priority 2021, published 2024)
